Measured values as given in PubChem BioAssay (NCI).
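Method: 48-hour compound exposure of cells in 96-well plates, five concentrations, linear interpolation of endpoints. TGI marks complete inhibition of growth.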 Activity calls are given as the source filed them. Rule as the data show it: active = GI50 below about 0.43 µM; inactive = the rest.

Columns and labels:
Assay in all cases: inhibition of tumour cell growth, NCI panel, 48 h
M14 melanoma = system: M14 melanoma
HCC-2998 colon = system: HCC-2998 colon
SNB-19 CNS = system: SNB-19 CNS
MALME-3M melanoma = system: MALME-3M melanoma
SK-MEL-2 melanoma = system: SK-MEL-2 melanoma
SW-620 colon = system: SW-620 colon
PC-3 prostate = system: PC-3 prostate
HS 578T breast = system: HS 578T breast
HT29 colon = system: HT29 colon
MDA-MB-435 = system: MDA-MB-435
A549 NSCLC = system: A549 NSCLC
SF-295 CNS = system: SF-295 CNS
UO-31 renal = system: UO-31 renal
SN12C renal = system: SN12C renal
OVCAR-3 ovarian = system: OVCAR-3 ovarian
RXF 393 renal = system: RXF 393 renal
OVCAR-4 ovarian = system: OVCAR-4 ovarian
BT-549 breast = system: BT-549 breast
NCI-H460 lung = system: NCI-H460 lung
NCI-H23 lung = system: NCI-H23 lung
U251 CNS = system: U251 CNS
HL-60(TB) leukemia = system: HL-60(TB) leukemia
LOX IMVI melanoma = system: LOX IMVI melanoma
K-562 leukemia = system: K-562 leukemia
CCRF-CEM leukemia = system: CCRF-CEM leukemia
SF-539 CNS = system: SF-539 CNS
MDA-MB-231 breast = system: MDA-MB-231 breast
UACC-62 melanoma = system: UACC-62 melanoma
SNB-75 CNS = system: SNB-75 CNS
DU-145 prostate = system: DU-145 prostate
HCT-15 colon = system: HCT-15 colon
MOLT-4 leukemia = system: MOLT-4 leukemia
HOP-62 NSCLC = system: HOP-62 NSCLC
SK-MEL-28 melanoma = system: SK-MEL-28 melanoma
SR leukemia = system: SR leukemia
NCI-H226 lung = system: NCI-H226 lung
OVCAR-5 ovarian = system: OVCAR-5 ovarian
T-47D breast = system: T-47D breast
A498 renal = system: A498 renal
HOP-92 NSCLC = system: HOP-92 NSCLC
SK-OV-3 ovarian = system: SK-OV-3 ovarian
SF-268 CNS = system: SF-268 CNS
MCF7 breast = system: MCF7 breast
COLO 205 colon = system: COLO 205 colon
MDA-N = system: MDA-N
OVCAR-8 ovarian = system: OVCAR-8 ovarian
IGROV1 ovarian = system: IGROV1 ovarian
UACC-257 melanoma = system: UACC-257 melanoma
SK-MEL-5 melanoma = system: SK-MEL-5 melanoma
NCI/ADR-RES ovarian = system: NCI/ADR-RES ovarian
HCT-116 colon = system: HCT-116 colon
TK-10 renal = system: TK-10 renal
EKVX NSCLC = system: EKVX NSCLC
CAKI-1 renal = system: CAKI-1 renal
RPMI-8226 leukemia = system: RPMI-8226 leukemia
786-0 renal = system: 786-0 renal
KM12 colon = system: KM12 colon
NCI-H522 lung = system: NCI-H522 lung

O=c1cc(-c2ccc(O)c(O)c2-c2c(O)cc(O)c3c(=O)cc(-c4ccc(O)c(O)c4-c4c(O)cc(O)c5c(=O)cc(-c6ccc(O)c(O)c6)oc45)oc23)oc2cc(O)cc(O)c12
outcome (M14 melanoma): inactive
outcome (HCC-2998 colon): inactive
outcome (SNB-19 CNS): inactive
outcome (MALME-3M melanoma): inactive
outcome (SK-MEL-2 melanoma): inactive
outcome (SW-620 colon): inactive
outcome (PC-3 prostate): inactive
outcome (HS 578T breast): inactive
outcome (HT29 colon): inactive
outcome (MDA-MB-435): inactive
outcome (A549 NSCLC): inactive
outcome (SF-295 CNS): inactive
outcome (UO-31 renal): inactive
outcome (SN12C renal): inactive
outcome (OVCAR-3 ovarian): inactive
outcome (RXF 393 renal): inactive
outcome (OVCAR-4 ovarian): inactive
outcome (BT-549 breast): inactive
outcome (NCI-H460 lung): inactive
outcome (NCI-H23 lung): inactive
outcome (U251 CNS): inactive
outcome (HL-60(TB) leukemia): inactive
outcome (LOX IMVI melanoma): inactive
outcome (K-562 leukemia): inactive
outcome (CCRF-CEM leukemia): inactive
outcome (SF-539 CNS): inactive
outcome (MDA-MB-231 breast): inactive
outcome (UACC-62 melanoma): inactive
outcome (SNB-75 CNS): inactive
outcome (DU-145 prostate): inactive
outcome (HCT-15 colon): inactive
outcome (MOLT-4 leukemia): inactive
outcome (HOP-62 NSCLC): inactive
outcome (SK-MEL-28 melanoma): inactive
outcome (SR leukemia): inactive
outcome (NCI-H226 lung): inactive
outcome (OVCAR-5 ovarian): inactive
outcome (T-47D breast): inactive
outcome (A498 renal): inactive
outcome (HOP-92 NSCLC): inactive
outcome (SK-OV-3 ovarian): inactive
outcome (SF-268 CNS): inactive
outcome (MCF7 breast): inactive
outcome (COLO 205 colon): inactive
outcome (MDA-N): inactive
outcome (OVCAR-8 ovarian): inactive
outcome (IGROV1 ovarian): inactive
outcome (UACC-257 melanoma): inactive
outcome (SK-MEL-5 melanoma): inactive
outcome (NCI/ADR-RES ovarian): inactive
outcome (HCT-116 colon): inactive
outcome (TK-10 renal): inactive
outcome (EKVX NSCLC): inactive
outcome (CAKI-1 renal): inactive

CC(C)(C)C(=O)CC1(O)C=C(O)C(O)(CC(=O)C(C)(C)C)O1 (stereo not given)
TGI (M14 melanoma): 51.1 µM
TGI (HCC-2998 colon): > 100 µM
TGI (SNB-19 CNS): > 100 µM
TGI (MALME-3M melanoma): > 100 µM
TGI (SK-MEL-2 melanoma): > 100 µM
TGI (PC-3 prostate): > 100 µM
TGI (HS 578T breast): > 100 µM
TGI (HT29 colon): > 100 µM
TGI (MDA-MB-435): > 100 µM
TGI (A549 NSCLC): > 100 µM
TGI (SF-295 CNS): > 100 µM
TGI (UO-31 renal): > 100 µM
TGI (SN12C renal): > 100 µM
TGI (OVCAR-3 ovarian): > 100 µM
TGI (RXF 393 renal): 45.1 µM
TGI (OVCAR-4 ovarian): 64.1 µM
TGI (BT-549 breast): > 100 µM
TGI (NCI-H460 lung): > 100 µM
TGI (NCI-H23 lung): 88.7 µM
TGI (U251 CNS): > 100 µM
TGI (HL-60(TB) leukemia): 72.1 µM
TGI (RPMI-8226 leukemia): 69.7 µM
TGI (LOX IMVI melanoma): > 100 µM
TGI (K-562 leukemia): > 100 µM
TGI (786-0 renal): 34.5 µM
TGI (CCRF-CEM leukemia): > 100 µM
TGI (SF-539 CNS): 90.2 µM
TGI (MDA-MB-231 breast): > 100 µM
TGI (UACC-62 melanoma): 97.1 µM
TGI (DU-145 prostate): > 100 µM
TGI (HCT-15 colon): > 100 µM
TGI (MOLT-4 leukemia): > 100 µM
TGI (HOP-62 NSCLC): 64.7 µM
TGI (SK-MEL-28 melanoma): > 100 µM
TGI (SR leukemia): > 100 µM
TGI (NCI-H226 lung): 56.6 µM
TGI (OVCAR-5 ovarian): > 100 µM
TGI (KM12 colon): > 100 µM
TGI (NCI-H522 lung): 80 µM
TGI (T-47D breast): > 100 µM
TGI (A498 renal): > 100 µM
TGI (HOP-92 NSCLC): > 100 µM
TGI (SK-OV-3 ovarian): > 100 µM
TGI (SF-268 CNS): > 100 µM
TGI (MCF7 breast): > 100 µM
TGI (COLO 205 colon): > 100 µM
TGI (MDA-N): > 100 µM
TGI (OVCAR-8 ovarian): > 100 µM
TGI (IGROV1 ovarian): 55.2 µM
TGI (UACC-257 melanoma): > 100 µM
TGI (SK-MEL-5 melanoma): > 100 µM
TGI (NCI/ADR-RES ovarian): > 100 µM
TGI (HCT-116 colon): 55.3 µM
TGI (TK-10 renal): > 100 µM
TGI (EKVX NSCLC): > 100 µM
TGI (CAKI-1 renal): 67.6 µM
